Results taken from the NIST ThermoML archive (doi:10.1016/j.jct.2011.10.023).

Details: Liquid, Vibrating tube method

CCCO [propan-1-ol]
mass density [kg/m3]
Details	278.15 K	288.15 K	298.15 K	308.15 K	318.15 K	328.15 K	338.15 K	348.15 K	358.15 K
100 kPa	815.7	807.8	799.8	791.6	783.4	775	766.3	757.2	747.7
1000 kPa	816.4	808.5	800.5	792.4	784.2	775.9	767.2	758.3	748.8
5000 kPa	819.4	811.6	803.8	795.8	787.9	779.7	771.3	762.6	753.5
10000 kPa	822.8	815.3	807.6	800.1	792.2	784.2	776.1	767.7	758.8
15000 kPa	826.2	818.9	811.4	803.8	796.3	788.5	780.6	772.5	764
20000 kPa	829.4	822.3	814.9	807.5	800.2	792.6	784.9	777	768.7
25000 kPa	832.6	825.5	818.3	811.1	803.9	796.5	789	781.3	773.3
30000 kPa	835.7	828.7	821.6	814.5	807.5	800.2	792.9	785.4	777.5
35000 kPa	838.6	831.8	824.8	817.8	810.9	803.8	796.6	789.3	781.6
40000 kPa	841.5	834.7	827.9	821	814.2	807.2	800.2	793	785.5
45000 kPa	844.3	837.6	830.9	824.1	817.5	810.6	803.7	796.6	789.3
50000 kPa	847.1	840.4	833.8	827.1	820.5	813.8	807	800.1	792.9
55000 kPa	849.7	843.1	836.6	830	823.6	816.9	810.3	803.5	796.4
60000 kPa	852.1	845.6	839.2	832.7	825.8	819.8	813.4	806.5	799.6
